Tests used:
Hep 3B2 [1] = test: Induction of autophagy in human Hep3B cells at 10 uM after 24 hrs by acridine orange staining based flow cytometry (reference value: 1.1 to 1.3%); type: functional
Hep 3B2 [2] = test: Cell cycle arrest in human Hep3B cells assessed as accumulation at sub-G1 phase at 2.5 uM after 72 hrs by propidium iodide staining based flow cytometry (reference value: 0.6 to 3.3 %); type: functional
Hep 3B2 [3] = test: Cell cycle arrest in human Hep3B cells assessed as accumulation at sub-G1 phase at 2.5 to 20 uM by propidium iodide staining based flow cytometry; type: functional; settings: TDE = time-dependent effect
Hep 3B2 [4] = test: Cell cycle arrest in human Hep3B cells assessed as accumulation at S phase at 20 uM after 72 hrs by propidium iodide staining based flow cytometry (reference value: 16.4 to 21.1%); type: functional
Hep 3B2 [5] = test: Cell cycle arrest in human Hep3B cells assessed as accumulation at G2/M phase at 10 uM after 72 hrs by propidium iodide staining based flow cytometry (reference value: 28.7 to 32.3%); type: functional
Hep 3B2 [6] = test: Induction of autophagy in human Hep3B cells at 2.5 uM after 24 hrs by acridine orange staining based flow cytometry (reference value: 1.1 to 1.3%); type: functional
Hep 3B2 [7] = test: Induction of autophagy in human Hep3B cells at 2.5 uM after 72 hrs by acridine orange staining based flow cytometry (reference value: 1.1 to 4%); type: functional
Hep 3B2 [8] = test: Induction of autophagy in human Hep3B cells at 20 uM after 72 hrs by acridine orange staining based flow cytometry (reference value: 1.1 to 4%); type: functional
Hep 3B2 [9] = test: Cell cycle arrest in human Hep3B cells assessed as accumulation at sub-G1 phase at 5 uM after 48 hrs by propidium iodide staining based flow cytometry (reference value: 1.5 to 6.5%); type: functional
Hep 3B2 [10] = test: Cell cycle arrest in human Hep3B cells assessed as accumulation at S phase at 10 uM after 24 hrs by propidium iodide staining based flow cytometry (reference value: 22.6 to 27.1%); type: functional
Hep 3B2 [11] = test: Cell cycle arrest in human Hep3B cells assessed as accumulation at S phase at 10 uM after 48 hrs by propidium iodide staining based flow cytometry (reference value: 20.8 to 24%); type: functional
Hep 3B2 [12] = test: Cell cycle arrest in human Hep3B cells assessed as accumulation at G0/G1 phase at 10 uM after 24 hrs by propidium iodide staining based flow cytometry (reference value: 36.3 to 39.0%); type: functional
Hep 3B2 [13] = test: Cell cycle arrest in human Hep3B cells assessed as accumulation at sub-G1 phase at 10 uM after 72 hrs by propidium iodide staining based flow cytometry (reference value: 0.6 to 3.3%); type: functional
Hep 3B2 [14] = test: Cell cycle arrest in human Hep3B cells assessed as accumulation at sub-G1 phase at 10 uM after 24 hrs by propidium iodide staining based flow cytometry (reference value: 1.9 to 3.6%); type: functional
[15] = Growth inhibition of HUVEC at 12.5 uM after 24 hrs by MTT assay relative to control; type: cell-based; settings: human, HUVEC cells; read-out: GI
Hep 3B2 [16] = test: Cell cycle arrest in human Hep3B cells assessed as accumulation at sub-G1 phase at 5 uM after 72 hrs by propidium iodide staining based flow cytometry (reference value: 0.6 to 3.3%); type: functional
Hep 3B2 [17] = test: Cell cycle arrest in human Hep3B cells assessed as accumulation at S phase at 20 uM after 24 hrs by propidium iodide staining based flow cytometry (reference value: 22.6 to 27.1%); type: functional
[18] = Growth inhibition of HUVEC at 50 uM after 24 hrs by MTT assay relative to control; type: cell-based; settings: human, HUVEC cells; read-out: GI
Hep 3B2 [19] = test: Cell cycle arrest in human Hep3B cells assessed as accumulation at sub-G1 phase at 2.5 uM after 48 hrs by propidium iodide staining based flow cytometry (reference value: 1.5 to 6.5%); type: functional
Hep 3B2 [20] = test: Cytotoxicity against human Hep3B cells at 20 uM after 48 hrs by MTT assay relative to control; type: functional
Hep 3B2 [21] = test: Cell cycle arrest in human Hep3B cells assessed as accumulation at G0/G1 phase at 5 uM after 72 hrs by propidium iodide staining based flow cytometry (reference value: 41.6 to 46.2%); type: functional
Hep 3B2 [22] = test: Induction of autophagy in human Hep3B cells at 5 uM after 72 hrs by acridine orange staining based flow cytometry (reference value: 1.1 to 4%); type: functional
Hep 3B2 [23] = test: Cell cycle arrest in human Hep3B cells assessed as accumulation at sub-G1 phase at 5 uM after 24 hrs by propidium iodide staining based flow cytometry (reference value: 1.9 to 3.6%); type: functional
Hep 3B2 [24] = test: Cell cycle arrest in human Hep3B cells assessed as accumulation at G2/M phase at 5 uM after 72 hrs by propidium iodide staining based flow cytometry (reference value: 28.7 to 32.3%); type: functional
Hep 3B2 [25] = test: Induction of autophagy in human Hep3B cells at 2.5 to 20 uM by acridine orange staining based flow cytometry; type: functional, cell-based; settings: TDE = time-dependent effect
Hep 3B2 [26] = test: Cell cycle arrest in human Hep3B cells assessed as accumulation at sub-G1 phase at 20 uM after 72 hrs by propidium iodide staining based flow cytometry (reference value: 0.6 to 3.3%); type: functional
Hep 3B2 [27] = test: Cytotoxicity against human Hep3B cells after 48 hrs by MTT assay; type: functional, cell-based
Hep 3B2 [28] = test: Induction of autophagy in human Hep3B cells at 5 uM after 48 hrs by acridine orange staining based flow cytometry (reference value: 0.9 to 3%); type: functional
Hep 3B2 [29] = test: Cell cycle arrest in human Hep3B cells assessed as accumulation at sub-G1 phase at 10 uM after 48 hrs by propidium iodide staining based flow cytometry (reference value: 1.5 to 6.5%); type: functional
Hep 3B2 [30] = test: Cell cycle arrest in human Hep3B cells assessed as accumulation at S phase at 5 uM after 72 hrs by propidium iodide staining based flow cytometry (reference value: 16.4 to 21.1%); type: functional
Hep 3B2 [31] = test: Cell cycle arrest in human Hep3B cells assessed as accumulation at G2/M phase at 20 uM after 72 hrs by propidium iodide staining based flow cytometry (reference value: 28.7 to 32.3%); type: functional
Hep 3B2 [32] = test: Induction of autophagy in human Hep3B cells at 5 uM after 24 hrs by acridine orange staining based flow cytometry (reference value: 1.1 to 1.3%); type: functional
Hep 3B2 [33] = test: Induction of autophagy in human Hep3B cells at 2.5 uM after 48 hrs by acridine orange staining based flow cytometry (reference value: 0.9 to 3%); type: functional
Hep 3B2 [34] = test: Cell cycle arrest in human Hep3B cells assessed as accumulation at sub-G1 phase at 2.5 uM after 24 hrs by propidium iodide staining based flow cytometry (reference value: 1.9 to 3.6%); type: functional
Hep 3B2 [35] = test: Induction of autophagy in human Hep3B cells at 20 uM after 24 hrs by acridine orange staining based flow cytometry (reference value: 1.1 to 1.3%); type: functional
Hep 3B2 [36] = test: Cell cycle arrest in human Hep3B cells assessed as accumulation at sub-G1 phase at 20 uM after 24 hrs by propidium iodide staining based flow cytometry (reference value: 1.9 to 3.6%); type: functional
Hep 3B2 [37] = test: Induction of autophagy in human Hep3B cells at 10 uM after 72 hrs by acridine orange staining based flow cytometry (reference value: 1.1 to 4%); type: functional

Structure (SMILES)	Activity (Hep 3B2 [1]) [%]	Activity (Hep 3B2 [2]) [%]	Activity (Hep 3B2 [3])	Activity (Hep 3B2 [6]) [%]	Activity (Hep 3B2 [7]) [%]	Activity (Hep 3B2 [8]) [%]	Activity (Hep 3B2 [9]) [%]	Activity (Hep 3B2 [13]) [%]	Activity (Hep 3B2 [14]) [%]	Activity (Hep 3B2 [16]) [%]	Activity (Hep 3B2 [19]) [%]	Activity (Hep 3B2 [22]) [%]	Activity (Hep 3B2 [23]) [%]	Activity (Hep 3B2 [25])	Activity (Hep 3B2 [26]) [%]	Activity (Hep 3B2 [28]) [%]	Activity (Hep 3B2 [29])	Activity (Hep 3B2 [32]) [%]	Activity (Hep 3B2 [33]) [%]	Activity (Hep 3B2 [34]) [%]	other results
CNC(=O)c1cc(Oc2ccc(NC(=O)Nc3ccc(Cl)c(C(F)(F)F)c3)cc2)ccn1 [SORAFENIB]	3.2	5.3	Tde	2	2.3	84.9	5	13.7	6.9	7.2	4	6.1	7.3	Tde	65	1.5	11.8%	2.4	1.3	5.2	Activity (Hep 3B2 [4]): 6.2%; Activity (Hep 3B2 [5]): 22.7%; Activity (Hep 3B2 [10]): 12.3%; Activity (Hep 3B2 [11]): 8.8%; Activity (Hep 3B2 [12]): 53.6%; inhibition at 24 h, 12.5 µM [15]: 37.4%; Activity (Hep 3B2 [17]): 14.3%; inhibition at 24 h, 50 µM [18]: 60%; Activity (Hep 3B2 [20]): 68.4%; Activity (Hep 3B2 [21]): 47.8%; Activity (Hep 3B2 [24]): 31.3%; IC50 (Hep 3B2 [27]): 11.2 µM; Activity (Hep 3B2 [30]): 13.7%; Activity (Hep 3B2 [31]): 15.2%
O=C1COc2ccccc2N1Cc1cn(CCC2OCCO2)nn1	2.4	7.9	Tde	1.3	1.9	57	14.2	54	22.4	18	6.5	12.8	12.4	Tde	65.7	5.1	37.4 - 41.4%	1.6	1.9	6.2	Activity (Hep 3B2 [35]): 5.5%; Activity (Hep 3B2 [36]): 34.1%; Activity (Hep 3B2 [37]): 49.4%; inhibition at 24 h, 12.5 µM [15]: 15.2%; inhibition at 24 h, 50 µM [18]: 21.5%; Activity (Hep 3B2 [20]): 53.4%; IC50 (Hep 3B2 [27]): 16.8 µM
COc1ccc(CNC(=O)Nc2ncc([N+](=O)[O-])s2)cc1	5.9	1.6	–	4.7	6.4	15.5	5	1.3	5	2.4	3.4	10.9	4.2	Tde	2.1	6.3	3.3%	5.3	8.1	3.1	Activity (Hep 3B2 [4]): 19.5%; Activity (Hep 3B2 [5]): 34.1%; Activity (Hep 3B2 [35]): 8.9%; Activity (Hep 3B2 [10]): 23.4%; Activity (Hep 3B2 [11]): 23.2%; Activity (Hep 3B2 [36]): 4.7%; Activity (Hep 3B2 [12]): 34.3%; Activity (Hep 3B2 [37]): 13.2%; Activity (Hep 3B2 [17]): 25.1%; Activity (Hep 3B2 [21]): 42.4%; Activity (Hep 3B2 [24]): 33.9%; Activity (Hep 3B2 [30]): 21.7%; Activity (Hep 3B2 [31]): 34.9%
